Test results: patent US20160158317A1, “Antimicrobial Peptide Variants and Polynucleotides Encoding Same” (Adenium Biotech A/S, priority 2010, published 2016)
Where a SMILES comes first, the peptide text is derived from it. Bridges are numbered along the chain shown (N, C = ends).

Test: Determination of the protein binding (90% serum, 30 kDa filter, HPLC)
Type: in vitro ADME
Settings: serum
Procedure: Protein binding assays were performed as follows. The purified peptides were mixed with 90% serum and centrifuged through a 30 kDa filter. The ultra-filtrate and the non filtrated serum samples were quantified by HPLC measurements and the protein binding was subsequently calculated.
For `CC(C)[C@@H]1NC(=O)CNC(=O)[C@H](C)NC(=O)[C@H](CCCNC(=N)N)NC(=O)[C@H](Cc2ccc(O)cc2)NC(=O)[C@H](C(C)C)NC(=O)[C@@H]2CSSC[C@H](NC(=O)[C@H](C(C)C)NC(=O)[C@H](CCCNC(=N)N)NC1=O)C(=O)N[C@@H](Cc1c[nH]cn1)C(=O)N[C@@H](CCCNC(=N)N)C(=O)N[C@@H](CCCNC(=N)N)C(=O)N[C@H](C(=O)N[C@@H](CC(N)=O)C(=O)O)CSSC[C@H](NC(=O)[C@H](Cc1ccccc1)NC(=O)CN)C(=O)N[C@@H](Cc1c[nH]c3ccccc13)C(=O)N[C@@H](CC(N)=O)C(=O)N[C@@H](C(C)C)C(=O)N2` [compound 230] (H-GFCWNVCVYRAGVRVCHRRCN-OH; disulfide 3-20, 7-16 (inferred); N-terminus and C-terminus assumed), the fraction unbound was 0.29. `CC(C)[C@@H]1NC(=O)CNC(=O)CNC(=O)[C@H](CCCNC(=N)N)NC(=O)[C@H](Cc2ccc(O)cc2)NC(=O)[C@H](C(C)C)NC(=O)[C@@H]2CSSC[C@H](NC(=O)[C@H](C(C)C)NC(=O)[C@H](CCCNC(=N)N)NC1=O)C(=O)N[C@@H](Cc1c[nH]cn1)C(=O)N[C@@H](CCCNC(=N)N)C(=O)N[C@@H](CCCNC(=N)N)C(=O)N[C@H](C(=O)N[C@@H](CC(N)=O)C(=O)O)CSSC[C@H](NC(=O)[C@H](Cc1ccccc1)NC(=O)CN)C(=O)N[C@@H](Cc1c[nH]c3ccccc13)C(=O)N[C@@H](CC(N)=O)C(=O)N[C@@H](C(C)C)C(=O)N2` [compound 231] (H-GFCWNVCVYRGGVRVCHRRCN-OH; disulfide 3-20, 7-16 (inferred); N-terminus and C-terminus assumed) showed a fraction unbound of 0.34. With `CC(C)[C@@H]1NC(=O)CNC(=O)[C@H](Cc2c[nH]cn2)NC(=O)[C@H](CCCNC(=N)N)NC(=O)[C@H](Cc2ccc(O)cc2)NC(=O)[C@H](C(C)C)NC(=O)[C@@H]2CSSC[C@H](NC(=O)[C@H](C(C)C)NC(=O)[C@H](CCCNC(=N)N)NC1=O)C(=O)N[C@@H](Cc1c[nH]cn1)C(=O)N[C@@H](CCCNC(=N)N)C(=O)N[C@@H](CCCNC(=N)N)C(=O)N[C@H](C(=O)N[C@@H](CC(N)=O)C(=O)O)CSSC[C@H](NC(=O)[C@H](Cc1ccccc1)NC(=O)CN)C(=O)N[C@@H](Cc1c[nH]c3ccccc13)C(=O)N[C@@H](CC(N)=O)C(=O)N[C@@H](C(C)C)C(=O)N2` [compound 232] (H-GFCWNVCVYRHGVRVCHRRCN-OH; disulfide 3-20, 7-16 (inferred); N-terminus and C-terminus assumed) the fraction unbound was 0.15. `CC(C)[C@@H]1NC(=O)CNC(=O)[C@H](CCC(N)=O)NC(=O)[C@H](CCCNC(=N)N)NC(=O)[C@H](Cc2ccc(O)cc2)NC(=O)[C@H](C(C)C)NC(=O)[C@@H]2CSSC[C@H](NC(=O)[C@H](C(C)C)NC(=O)[C@H](CCCNC(=N)N)NC1=O)C(=O)N[C@@H](Cc1c[nH]cn1)C(=O)N[C@@H](CCCNC(=N)N)C(=O)N[C@@H](CCCNC(=N)N)C(=O)N[C@H](C(=O)N[C@@H](CC(N)=O)C(=O)O)CSSC[C@H](NC(=O)[C@H](Cc1ccccc1)NC(=O)CN)C(=O)N[C@@H](Cc1c[nH]c3ccccc13)C(=O)N[C@@H](CC(N)=O)C(=O)N[C@@H](C(C)C)C(=O)N2` [compound 233] (H-GFCWNVCVYRQGVRVCHRRCN-OH; disulfide 3-20, 7-16 (inferred); N-terminus and C-terminus assumed) showed a fraction unbound of 0.22. With `CC(C)[C@@H]1NC(=O)CNC(=O)[C@H](CCCNC(=N)N)NC(=O)[C@H](CCCNC(=N)N)NC(=O)[C@H](Cc2ccc(O)cc2)NC(=O)[C@H](C(C)C)NC(=O)[C@@H]2CSSC[C@H](NC(=O)[C@H](C(C)C)NC(=O)[C@H](CCCNC(=N)N)NC1=O)C(=O)N[C@@H](Cc1c[nH]cn1)C(=O)N[C@@H](CCCNC(=N)N)C(=O)N[C@@H](CCCNC(=N)N)C(=O)N[C@H](C(=O)N[C@@H](CC(N)=O)C(=O)O)CSSC[C@H](NC(=O)[C@H](Cc1ccccc1)NC(=O)CN)C(=O)N[C@@H](Cc1c[nH]c3ccccc13)C(=O)N[C@@H](CC(N)=O)C(=O)N[C@@H](C(C)C)C(=O)N2` [compound 234] (H-GFCWNVCVYRRGVRVCHRRCN-OH; disulfide 3-20, 7-16 (inferred); N-terminus and C-terminus assumed) the fraction unbound was 0.14. Molecule `CC(C)[C@@H]1NC(=O)[C@H](CCCNC(=N)N)NC(=O)[C@H](C)NC(=O)CNC(=O)[C@H](CC(N)=O)NC(=O)[C@H](CCCNC(=N)N)NC(=O)[C@H](Cc2ccc(O)cc2)NC(=O)[C@H](C(C)C)NC(=O)[C@@H]2CSSC[C@H](NC1=O)C(=O)N[C@@H](Cc1c[nH]cn1)C(=O)N[C@@H](CCCNC(=N)N)C(=O)N[C@@H](CCCNC(=N)N)C(=O)N[C@H](C(=O)N[C@@H](CC(N)=O)C(=O)O)CSSC[C@H](NC(=O)[C@H](Cc1ccccc1)NC(=O)CN)C(=O)N[C@@H](Cc1c[nH]c3ccccc13)C(=O)N[C@@H](CC(N)=O)C(=O)N[C@@H](C(C)C)C(=O)N2` [compound 235] (H-GFCWNVCVYRNGARVCHRRCN-OH; disulfide 3-20, 7-16 (inferred); N-terminus and C-terminus assumed) has a fraction unbound of 0.36. `CC(C)[C@@H]1NC(=O)[C@H](CCCNC(=N)N)NC(=O)[C@H](Cc2c[nH]cn2)NC(=O)CNC(=O)[C@H](CC(N)=O)NC(=O)[C@H](CCCNC(=N)N)NC(=O)[C@H](Cc2ccc(O)cc2)NC(=O)[C@H](C(C)C)NC(=O)[C@@H]2CSSC[C@H](NC1=O)C(=O)N[C@@H](Cc1c[nH]cn1)C(=O)N[C@@H](CCCNC(=N)N)C(=O)N[C@@H](CCCNC(=N)N)C(=O)N[C@H](C(=O)N[C@@H](CC(N)=O)C(=O)O)CSSC[C@H](NC(=O)[C@H](Cc1ccccc1)NC(=O)CN)C(=O)N[C@@H](Cc1c[nH]c3ccccc13)C(=O)N[C@@H](CC(N)=O)C(=O)N[C@@H](C(C)C)C(=O)N2` [compound 237] (H-GFCWNVCVYRNGHRVCHRRCN-OH; disulfide 3-20, 7-16 (inferred); N-terminus and C-terminus assumed) showed a fraction unbound of 0.6. For `CC(C)[C@@H]1NC(=O)[C@H](CCCNC(=N)N)NC(=O)[C@H](CCCNC(=N)N)NC(=O)CNC(=O)[C@H](CC(N)=O)NC(=O)[C@H](CCCNC(=N)N)NC(=O)[C@H](Cc2ccc(O)cc2)NC(=O)[C@H](C(C)C)NC(=O)[C@@H]2CSSC[C@H](NC1=O)C(=O)N[C@@H](Cc1c[nH]cn1)C(=O)N[C@@H](CCCNC(=N)N)C(=O)N[C@@H](CCCNC(=N)N)C(=O)N[C@H](C(=O)N[C@@H](CC(N)=O)C(=O)O)CSSC[C@H](NC(=O)[C@H](Cc1ccccc1)NC(=O)CN)C(=O)N[C@@H](Cc1c[nH]c3ccccc13)C(=O)N[C@@H](CC(N)=O)C(=O)N[C@@H](C(C)C)C(=O)N2` [compound 239] (H-GFCWNVCVYRNGRRVCHRRCN-OH; disulfide 3-20, 7-16 (inferred); N-terminus and C-terminus assumed), the fraction unbound was 0.35. Molecule `CC(C)[C@@H]1NC(=O)[C@H](CCCNC(=N)N)NC(=O)[C@H](Cc2ccc(O)cc2)NC(=O)CNC(=O)[C@H](CC(N)=O)NC(=O)[C@H](CCCNC(=N)N)NC(=O)[C@H](Cc2ccc(O)cc2)NC(=O)[C@H](C(C)C)NC(=O)[C@@H]2CSSC[C@H](NC1=O)C(=O)N[C@@H](Cc1c[nH]cn1)C(=O)N[C@@H](CCCNC(=N)N)C(=O)N[C@@H](CCCNC(=N)N)C(=O)N[C@H](C(=O)N[C@@H](CC(N)=O)C(=O)O)CSSC[C@H](NC(=O)[C@H](Cc1ccccc1)NC(=O)CN)C(=O)N[C@@H](Cc1c[nH]c3ccccc13)C(=O)N[C@@H](CC(N)=O)C(=O)N[C@@H](C(C)C)C(=O)N2` [compound 242] (H-GFCWNVCVYRNGYRVCHRRCN-OH; disulfide 3-20, 7-16 (inferred); N-terminus and C-terminus assumed) has a fraction unbound of 0.17.
